Molecular target: T1, Gonadotropin-releasing hormone receptor (Homo sapiens, UniProt P30968)
T1 sequence (P30968 whole entry): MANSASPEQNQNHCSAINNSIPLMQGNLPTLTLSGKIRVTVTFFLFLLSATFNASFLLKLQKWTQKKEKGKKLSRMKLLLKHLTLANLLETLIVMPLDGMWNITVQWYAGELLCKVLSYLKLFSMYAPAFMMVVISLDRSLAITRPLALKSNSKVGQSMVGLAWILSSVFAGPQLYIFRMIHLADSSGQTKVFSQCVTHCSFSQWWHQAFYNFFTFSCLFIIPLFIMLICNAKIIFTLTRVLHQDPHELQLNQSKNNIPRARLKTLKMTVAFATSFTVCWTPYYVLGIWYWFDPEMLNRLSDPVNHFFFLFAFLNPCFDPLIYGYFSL
Experiment: Binding affinity towards human gonadotropin-releasing hormone receptor (GNRHR) using GnRH peptide as radioligand

Row | Structure (SMILES) | Ki [nM]
1 | COc1cccc(-c2cn(Cc3c(F)cccc3S(=O)(=O)N(C)C)c(=O)n(C[C@H](N)c3ccccc3)c2=O)c1F | 120
2 | COc1cccc(-c2cn(Cc3c(F)cccc3S(=O)(=O)C(C)C)c(=O)n(C[C@H](N)c3ccccc3)c2=O)c1F | 30
3 | COc1cccc(-c2cn(Cc3c(F)cccc3S(=O)(=O)N3CCOCC3)c(=O)n(C[C@H](N)c3ccccc3)c2=O)c1F | 1400
4 | N[C@@H](Cn1c(=O)c(-c2cccc(OCC(F)(F)F)c2F)cn(Cc2c(F)cccc2C(F)(F)F)c1=O)c1ccccc1 | 8.2
5 | COc1cccc(-c2cn(Cc3c(F)cccc3Cl)c(=O)n(C[C@H](N)c3ccccc3)c2=O)c1F | 1.4
6 | COc1cccc(-c2cn(Cc3c(F)cccc3F)c(=O)n(C[C@H](N)c3ccccc3)c2=O)c1Cl | 1
7 | COc1cccc(-c2cn(Cc3c(F)cccc3S(=O)(=O)CCO)c(=O)n(C[C@H](N)c3ccccc3)c2=O)c1F | 9.1
8 | COc1cccc(-c2cn(Cc3c(F)cccc3SC)c(=O)n(C[C@H](N)c3ccccc3)c2=O)c1F | 19
9 | N[C@@H](Cn1c(=O)c(-c2cccc(O)c2F)cn(Cc2c(F)cccc2F)c1=O)c1ccccc1 | 660
10 | CC(C)Oc1cccc(-c2cn(Cc3c(F)cccc3C(F)(F)F)c(=O)n(C[C@H](N)c3ccccc3)c2=O)c1F | 6.3
11 | CS(=O)(=O)c1cccc(C(F)(F)F)c1Cn1cc(-c2ccccc2Cl)c(=O)n(C[C@H](N)c2ccccc2)c1=O | 3100
12 | N[C@@H](Cn1c(=O)c(-c2ccccc2C(F)(F)F)cn(Cc2c(F)cccc2C(F)(F)F)c1=O)c1ccccc1 | 4

Second part, the compound after the results:

Row | Ki [nM] | Structure (SMILES)
13 | 200 | N[C@@H](Cn1c(=O)c(-c2ccc(C(F)(F)F)cc2Cl)cn(Cc2c(F)cccc2C(F)(F)F)c1=O)c1ccccc1
14 | 1.8 | CCOc1cccc(-c2cn(Cc3c(F)cccc3C(F)(F)F)c(=O)n(C[C@H](N)c3ccccc3)c2=O)c1F
15 | 0.45 | COc1cccc(-c2cn(Cc3c(F)cccc3C(F)(F)F)c(=O)n(C[C@H](N)c3ccccc3)c2=O)c1Cl
16 | 8 | N[C@@H](Cn1c(=O)c(-c2ccccc2F)cn(Cc2c(F)cccc2C(F)(F)F)c1=O)c1ccccc1
17 | 2.6 | Cc1ccc(-c2cn(Cc3c(F)cccc3C(F)(F)F)c(=O)n(C[C@H](N)c3ccccc3)c2=O)c(Cl)c1
18 | 18 | N[C@@H](Cn1c(=O)c(-c2cccc(O)c2F)cn(Cc2c(F)cccc2C(F)(F)F)c1=O)c1ccccc1

From ChEMBL document CHEMBL1145245, “Uracils as potent antagonists of the human gonadotropin-releasing hormone receptor without atropisomers” (Bioorg Med Chem Lett, 2005)
